Values of other authors in US10285971B2, “Formulations of water-soluble derivatives of vitamin E and soft gel compositions, concentrates and powders containing same” (VIRUN, INC., priority 2014, dated 2019).

## sucrose dipalmitate
  HLB value: 7.4

## sucrose distearate
  HLB value: 3

## sucrose monopalmitate
  HLB value: > 10
